Literature values, collected in US9522161B2, “Performance enhancing composition and method of delivering nutrients” (Advanced Bio Development, Inc., priority 2010, dated 2016).
Entries after “also recorded” stand apart in the source; their conditions may differ. Each block holds one molecule with its values, some of them ahead of it.

Tests used:
muscle = details: ribose supplementation in rats, depending on muscle fiber type
[1] = humans, chronic high-intensity exercise, ribose supplementation
[2] = consumed orally, within two hours
[3] = tested on: mice that have a hypoinsulinemic type of diabetes; details: mice with hypoinsulinemic type of diabetes
[4] = not given; remark: listed apart in the source
[5] = taken orally
[6] = pilot studies and human trials
[7] = not given; remark: listed apart in the source
[8] = not given; remark: listed apart in the source

ribose level that can be safely ingested (in vivo): ≤ 15 g per day | fraction of ribose absorbed in the intestines [2]: 88-100%
Compound: O=C[C@H](O)[C@H](O)[C@H](O)CO [Ribose]
known side effects (doses of 10 grams or more on an empty stomach): transient hypoglycemia; also recorded: gastrointestinal discomfort, including loose stools and diarrhea | increase in hypoxanthine salvage (muscle): six- to eight-fold | increase in nucleotide salvage (muscle): three- to six-fold | time to return TAN and ATP levels to baseline [1]: 65 to 72 h

Compound: CO[C@H]1[C@H](O)[C@@H](O)[C@@H](O)[C@H](O)[C@@H]1O [D-pinitol]
insulin-like effect [3]: acute and chronic insulin-like effect

Compound: Cn1c(=O)c2c(ncn2C)n(C)c1=O [Caffeine]
time until elevated levels appear in the bloodstream ([4]; after consumption): 15 to 45 min | time of peak concentrations post ingestion ([4]; post ingestion): one | decrease of circulating concentrations ([4]; within three to six hours of consumption): 50 to 75%

Compound: CO[C@H]1[C@H](O)[C@@H](O)[C@@H](O)[C@H](O)[C@@H]1O [Pinitol]
stimulation of glucose uptake in muscle cells (muscle cells): 25-80%

Compound: Nc1ncnc2c1ncn2[C@@H]1O[C@H](COP(=O)(O)OP(=O)([O-])OP(=O)([O-])O)[C@@H](O)[C@H]1O.[Na+].[Na+] [ATP disodium, adenosine triphosphate (ATP) disodium]
duration of measurable increase in circulating ATP levels [5]: at least six | adverse side effects [6]: no adverse side effects have been observed

Compound: COC1=C(OC)C(=O)C(C/C=C(\C)CC/C=C(\C)CC/C=C(\C)CC/C=C(\C)CC/C=C(\C)CC/C=C(\C)CC/C=C(\C)CC/C=C(\C)CC/C=C(\C)CCC=C(C)C)=C(C)C1=O [CoQ10, Coenzyme Q10]
increase in plasma concentrations ([7]; dosages of 90 to 150 mg/day): 180% | uptake of CoQ10 into the blood, share of the dose administered ([7]; in vivo): 5 to 10% | safety in cardiovascular-related clinical trials ([8]; 2,152 patients, 100 to 200 mg per day): safe, without any reports of toxicity or drug interactions | share of users with gastrointestinal side effects ([8]; nausea, vomiting, diarrhea, appetite suppression, heartburn, epigastric discomfort): Less than one | dosing level shown to be safe and well tolerated ([8]; over 8 months): ≤ 3,000 mg per day
